MIC90 and IC50 data for 37 compounds are collected here from patent US9605002B2, “5,5-heteroaromatic anti-infective compounds” (priority 2012, dated 2017).

The IC50 is the concentration that inhibits the measured activity by half.

Test [1] has as its system M. tuberculosis (Mtb) H37Rv. The test is described as follows: Microplate Alamar Blue Assay (MABA), 7H12 media, replicating Mtb. The class given is cell-based. The following applies: Mycobacterium tuberculosis, 7H12 media (no glycerol), read-out: 7H12 media: Replicating H37Rv Mtb: MIC 90.
In test [2] the test system is M. tuberculosis (Mtb) H37Rv. The experiment in a line: Microplate Alamar Blue Assay (MABA), GAS media, replicating Mtb. The following applies: Mycobacterium tuberculosis; GAS (glycerol-alanine-salt) media, replicating H37Rv; read-out: GAS media: replicating H37Rv Mtb: MIC 90. It counts as cell-based, Mycobacterium tuberculosis. On the technique in general: The colour change of resazurin is a common sign of viable cells or microbes.

The subject of test [3] is VERO kidney epithelial cells. The experiment in a line: VERO toxicity assessment. The following applies: Chlorocebus sabaeus, Vero, read-out: VERO: IC50.

Converted amounts (≈) assume the structure as drawn.

Take `Cc1cn2c(C(=O)NCc3cccc(Oc4ccc(C(F)(F)F)cc4)c3)c(C)nc2s1` [ND-020057]: the MIC90 in test [1] and in test [2] was < 2 µM throughout. Moreover, the IC50 in test [3] is < 32 µM.
On to `Cc1cn2c(C(=O)NCc3ccc(N4CC(C)CC(C)C4)cc3)c(C)nc2s1` (stereo not drawn) [ND-020069], for which the MIC90 in test [1] and in test [2] was < 2 µM each time. The IC50 in test [3] lay within 20 to 32 µM.
As for `Cc1cn2c(C(=O)NCc3cccc(N(C)C)c3)c(C)nc2s1` [ND-020019], the MIC90 in test [1] and in test [2] was < 2 µM in each case. The IC50 in test [3] was < 32 µM.
`Cc1cn2c(C(=O)NCc3cccc(F)c3)c(C)nc2s1` [ND-009762]: the MIC90 in test [1] and in test [2] was < 2 µM in each case. Moreover, in test [3], the IC50 is < 32 µM.
As to `Cc1cn2c(C(=O)NCc3cccc(OC(C)C)c3)c(C)nc2s1` [ND-020030], the MIC90 in test [1] and in test [2] was < 2 µM throughout. In addition, the IC50 in test [3] was < 32 µM.
As for `Cc1cn2c(C(=O)NCc3ccc(-n4cccn4)cc3)c(C)nc2s1` [ND-020064], the MIC90 in test [1] and in test [2] was < 2 µM in each case. In addition, in test [3], the IC50 is 20 to 32 µM.
In the case of `Cc1cn2c(C(=O)NCc3cccc(N4CCN(c5ccc(F)cc5)CC4)c3)c(C)nc2s1` [ND-020047], the MIC90 in test [1] is 2 to 10 µM (≈ 0.927 to 4.64 µg/mL); in test [2], < 2 µM. The IC50 in test [3] is 20 to 32 µM.
With `COC(=O)c1c(C)nc2sc(C)c(C)n12` [ND-009744], the MIC90 in test [1] and in test [2] was < 32 µM in each case. Moreover, in test [3], the IC50 was < 32 µM.
`Cc1cn2c(C(=O)NCc3ccc(Oc4ccc(C(F)(F)F)cc4)cc3)c(C)nc2s1` [ND-020055]: the MIC90 in test [1] and in test [2] was < 2 µM in each case. In test [3], the IC50 was 20 to 32 µM.
On to `Cc1cn2c(C(=O)NCc3ccc(N4CCOCC4)cc3)c(C)nc2s1` [ND-020033], for which the MIC90 in test [1] is 2 to 10 µM (≈ 0.741 to 3.7 µg/mL); in test [2] it was < 2 µM. Besides, the IC50 in test [3] lay within 20 to 32 µM.
On the same counts, the results for `Cc1cn2c(C(=O)NCc3ccc(C(C)(C)C)cc3)c(C)nc2s1` [ND-020031] are < 2 µM, < 2 µM and < 32 µM.
For `Cc1nc2sc(Cl)cn2c1C(=O)NCc1ccc(N2CCOCC2)c(F)c1` [ND-020039], in that order: < 2 µM, < 2 µM and < 32 µM.
With `Cc1cn2c(C(=O)NCc3cccc(OC(F)(F)F)c3)c(C)nc2s1` [ND-020007], the MIC90 in test [1] and in test [2] was < 2 µM in each case. In test [3], the IC50 is < 32 µM.
As for `Cc1cn2c(C(=O)NCc3cccc(N4CCOCC4)n3)c(C)nc2s1` [ND-020036], the values for the MIC90 in test [1] and in test [2] were 2 to 10 µM (≈ 0.743 to 3.71 µg/mL) and < 2 µM, respectively. In addition, in test [3], the IC50 is < 32 µM.
On the same counts, the results for `Cc1nn2c(C(=O)NCc3ccc(Oc4ccc(F)cc4)cc3)c(C)nc2s1` [ND-020052] are 2 to 10 µM (≈ 0.793 to 3.96 µg/mL), < 2 µM and 20 to 32 µM.
For `Cc1cn2c(C(=O)NCc3cccc(N4CCC(c5ccc(F)cc5)CC4)c3)c(C)nc2s1` [ND-020045], the MIC90 in test [1] was 2 to 10 µM (≈ 0.925 to 4.63 µg/mL); in test [2], < 2 µM. For the same compound, the IC50 in test [3] is 20 to 32 µM.
As to `Cc1cn2c(C(=O)NCc3ccc(N(C)C)cc3)c(C(F)(F)F)nc2s1` [ND-020025], the MIC90 in test [1] was 2 to 10 µM (≈ 0.765 to 3.82 µg/mL); in test [2], < 2 µM. The IC50 in test [3] was < 32 µM.
On the same counts, the results for `Cc1cn2c(C(=O)NCc3ccc4c(c3)OCC4)c(C)nc2s1` [ND-020018] are < 2 µM, < 2 µM and < 32 µM.
`CCc1nc2sc(Cl)cn2c1C(=O)NCc1ccc(N(C)C)cc1` [ND-020023]: the MIC90 in test [1] and in test [2] was < 2 µM throughout. The IC50 in test [3] is < 32 µM.
As to `Cc1cn2c(C(=O)NCc3ccc4ocnc4c3)c(C)nc2s1` [ND-020049], the MIC90 in test [1] and in test [2] was < 2 µM in each case. Further, the IC50 in test [3] was < 32 µM.
With `Cc1nc2sc(C(F)(F)F)cn2c1C(=O)NCc1ccc(N(C)C)cc1` [ND-020024], the MIC90 is 2 to 10 µM (≈ 0.765 to 3.82 µg/mL) in test [1] and < 2 µM in test [2]. In addition, in test [3], the IC50 was < 32 µM.
On the same counts, the results for `Cc1cn2c(C(=O)NCc3cc(F)ccc3F)c(C)nc2s1` [ND-020002] are < 2 µM, < 2 µM and < 32 µM.
Regarding `CCc1nc2sc(C)cn2c1C(=O)NCc1ccc2nc(-c3ccc(F)cc3)oc2c1` [ND-020067], the MIC90 in test [1] is 2 to 10 µM (≈ 0.869 to 4.34 µg/mL); in test [2], < 2 µM. The IC50 in test [3] was 20 to 32 µM.
For `COc1ccc(CNC(=O)c2c(C)nc3sc(C)cn23)cc1` [ND-020027], in that order: < 2 µM, < 2 µM and < 32 µM.
For `Cc1nc2sc(C(F)(F)F)cn2c1C(=O)NCc1ccc(N2CCOCC2)c(F)c1` [ND-020038], in that order: 2 to 10 µM (≈ 0.885 to 4.42 µg/mL), 2 to 10 µM and < 32 µM.
For the compound `Cc1cn2c(C(=O)NCc3ccccc3)c(C)nc2s1` [ND-009749], the MIC90 in test [1] and in test [2] was < 2 µM each time. Moreover, the IC50 in test [3] is < 32 µM.
As to `CCc1nc2sc(C)cn2c1C(=O)NCc1ccc(C(F)(F)F)cc1` [ND-020010], the MIC90 in test [1] and in test [2] was < 2 µM throughout. Further, the IC50 in test [3] was < 32 µM.
Turning to `Cc1cn2c(C(=O)NCc3ccc(N4CCC(=O)CC4)cc3)c(C)nc2s1` [ND-020070], the MIC90 in test [1] is 2 to 10 µM (≈ 0.765 to 3.82 µg/mL); in test [2] it was < 2 µM. Besides, in test [3], the IC50 was in the range of 20 to 32 µM.
On the same counts, the results for `Cc1cn2c(C(=O)Nc3ccc(Oc4ccc(C(F)(F)F)cc4)cc3)c(C)nc2s1` [ND-020040] are < 2 µM, < 2 µM and < 32 µM.
As to `Cc1cn2c(C(=O)NCc3cccc(N4CC(C)CC(C)C4)c3)c(C)nc2s1` (stereo not drawn) [ND-020068], the MIC90 in test [1] and in test [2] was < 2 µM each time. Also, the half-maximal inhibitory concentration (IC50) in test [3] was < 32 µM.
Turning to `Cc1cn2c(C(=O)NCc3ccc4c(ccn4C)c3)c(C)nc2s1` [ND-020079], the MIC90 in test [1] and in test [2] was < 2 µM in each case. In addition, the IC50 in test [3] is < 32 µM.
For the compound `CCc1nc2sc(Cl)cn2c1C(=O)NCc1ccc(C(F)(F)F)cc1` [ND-020011], the MIC90 in test [1] is 2 to 10 µM (≈ 0.776 to 3.88 µg/mL); in test [2], < 2 µM. Besides, in test [3], the IC50 was < 32 µM.
Consider `CCc1nc2sc(C)cn2c1C(=O)O` [ND-009745], for which the MIC90 in test [1] and in test [2] was < 32 µM in each case. For the same compound, in test [3], the IC50 is < 32 µM.
Regarding `Cc1cn2c(C(=O)NCc3cccc(Cl)c3)c(C(F)(F)F)nc2s1` [ND-020014], the MIC90 in test [1] is 2 to 10 µM (≈ 0.748 to 3.74 µg/mL); in test [2] it was < 2 µM. Besides, the IC50 in test [3] was < 32 µM.
For `Cc1cn2c(C(=O)NCc3ccc(OC(F)(F)F)cc3)c(C)nc2s1` [ND-020006], in that order: < 2 µM, < 2 µM and < 32 µM.
As to `Cc1cn2c(C(=O)NCc3ccc(N4CCCC4)cc3)c(C)nc2s1` [ND-020071], the MIC90 in test [1] and in test [2] was < 2 µM in each case. In addition, the IC50 in test [3] was in the range of 20 to 32 µM.
For the compound `Cc1nc2sc(F)cn2c1C(=O)NCc1cccc(Cl)c1` [ND-020056], the MIC90 is 2 to 10 µM (≈ 0.648 to 3.24 µg/mL) in test [1] and < 2 µM in test [2]. The IC50 in test [3] is < 32 µM.
